PubChem BioAssay AID504484 (Southern Research Specialized Biocontainment Screening …, 2011)

System: human PBMC HIV-1 replication, RT activity in supernatant
Test: HIV-1 replication inhibition in human PBMCs, dose response, cell-based, CXCR4-tropic HIV-1, primary PBMCs (AID 504484)

SMILES | IC50
Cc1c2c(=O)n(-c3nc4ccccc4s3)nc-2cc(O)n1Cc1ccc(F)cc1 | 7.48 µM
Cc1c2c(=O)n(-c3nc4ccccc4s3)nc-2cc(O)n1Cc1cccs1 | 11.5 µM
Cc1c2c(=O)n(-c3nc4ccccc4s3)nc-2cc(O)n1C1CC1 | 3.35 µM
Cc1c2c(=O)n(-c3nc4ccccc4s3)nc-2cc(O)n1CCc1ccc(O)cc1 | 1.32 µM
COc1ccccc1Cn1c(O)cc2nn(-c3nc4ccccc4s3)c(=O)c-2c1C | 4.42 µM
Cc1c2c(=O)n(-c3nc4ccccc4s3)nc-2cc(O)n1CCc1cccs1 | 28.7 µM
Cc1c2c(=O)n(-c3nc4ccccc4s3)nc-2cc(O)n1Cc1ccncc1 | 1.81 µM
Cc1c2c(=O)n(-c3nc4ccccc4s3)nc-2cc(O)n1CCC(C)C | 5.68 µM
Cc1c2c(=O)n(-c3nc4ccccc4s3)nc-2cc(O)n1Cc1ccccc1Cl | 7.44 µM
Cc1c2c(=O)n(-c3nc4ccccc4s3)nc-2cc(O)n1Cc1cccnc1 | 2.86 µM
COc1ccc(Cn2c(O)cc3nn(-c4nc5ccccc5s4)c(=O)c-3c2C)cc1 | 7.71 µM
COc1ccc(CCn2c(O)cc3nn(-c4nc5ccccc5s4)c(=O)c-3c2C)cc1 | 5.45 µM
